Results as given in US11434205B2, “Substituted imidazole carboxylate derivatives and the use thereof” (priority 2018, dated 2022).
pEC50: −log10 of the molar value.

How the values were obtained:
[1] = test system: rats; assay: Loss of righting reflexes (LORR) assay in rats, ED50 by up and down method; format: in vivo, rat; settings: tail vein, class symbols; for ED50: Rattus norvegicus
Experimental: The Anesthetic Activity of the Compounds was Assessed in Rats Using a Loss of Righting Reflexes (LORR) Assay
(§1) Adult male Sprague-Dawley rats (250-300 g) were selected for the experiment. […] The anesthesia effects of the compounds were assessed in rats using a LORR assay and a period >30 s was considered as an indicator of general anesthesia. Then the up and down method was used to determine 50% effective dose (ED50). The drugs were administered through the tail vein of rats in a volume of 0.6 mL and at a rate of 0.1 mL/s.

[2] = test system: secretion of cortisol, H295R cell line; assay: cells; format: cell-based
Experimental: (§2) The Effects of the Compounds on Adrenocortical Function In Vitro Test
(§3) Then secretion of the cortisol and corticosterone in the supernatant, was measured using HPLC-MS/MS method to determine whether the compounds of the present invention had adrenotoxic potential.

[3] = test system: secretion of corticosterone, H295R cell line; assay: cells; format: cell-based
Experimental: as §2, §3

[4] = test system: rats; assay: Pharmacological characteristics at equivalent doses (2×ED50) in rats; settings: 2×ED50, tail vein; for Adverse reactions: Red urine (incidence): DMSO solution (DMSO alone 10/10); for Adverse reactions: Tremor (incidence): animals affected/animals; for Onset time: time of LORR
Experimental: Comparison of Pharmacological Characteristics of the Compounds at Equivalent Doses (2×ED50) in Rats
Adult male Sprague-Dawley rats (250-300 g) were selected for the experiment (n=8). […] The drugs were administered at a dose twice their ED50 through the tail vein of rats in a volume of 0.6 mL and at a rate of 0.1 mL/s. In addition, the time of LORR was recorded as the onset time of anesthesia. […] Furthermore, the duration of the pharmacological effects is sufficient to meet the time requirements for rapid induction of general anesthesia and for diagnostic examinations, some short invasive clinical examinations, or operations.

[5] = test system: rats
Experimental: as §1

Structure (SMILES)	ED50 [1]	Cortisol as an indicator to determine the presence of inhibition ([2]; H295R, Table A3)	pEC50 ([2]; Homo sapiens, NCI-H295R, read-out: EC50 (Cortisol))	Corticosterone as an indicator to determine the presence of inhibition ([3]; H295R, Table A3)	pEC50 ([3]; Homo sapiens, NCI-H295R, read-out: EC50 (Corticosterone))	Righting reflex duration [4]	Adverse reactions: Red urine (incidence) [4]	Adverse reactions: Tremor (incidence) [4]	Onset time [4]	Approximate therapeutic index [5]	Minimal lethal dose [5]	Adverse reactions: Myoclonus (incidence) [4]	Adverse reactions: Tongue stretching (incidence) [4]	ED50 (mg/kg) [1]	Sedation duration (mg/kg) [4]	Adverse reactions: Restlessness (incidence) [4]
CCC1(COC(=O)c2cncn2[C@H](C)c2ccccc2)CC1 [Compound A9]	0.1 to 0.5 mg/kg	0	< 5.00	0	< 5.00	4.80 ± 1.25 min	8/8	5/8	0.40 ± 0.15 min	>13	>5 mg/kg	–	–	–	–	–
C[C@H](c1ccccc1)n1cncc1C(=O)OC1(CC2CO2)COC1 (some centres unmarked) [Compound B22]	0.5 to 1 mg/kg	–	–	–	–	1.24 ± 0.12 min	8/8	4/8	0.92 ± 0.14 min	>10	>17 mg/kg	–	–	–	–	–
C[C@H](c1ccccc1)n1cncc1C(=O)OC1(C)COC1 [Compound B28]	0.1 to 0.5 mg/kg	–	–	–	–	3.32 ± 0.72 min	Red urine (8/8)	–	0.29 ± 0.15 min	>13	>10 mg/kg	–	–	–	–	–
C=CCC1(OC(=O)c2cncn2[C@H](C)c2ccccc2)CCC1 [Compound D12]	0.5 to 1 mg/kg	–	–	–	–	2.15 ± 1.03 min	Red urine (8/8)	–	0.32 ± 0.09 min	>14	>10 mg/kg	–	–	–	–	–
[2H]C#CC(C)(C)OC(=O)c1cncn1[C@H](C)c1ccccc1 [Compound D16]	0.5 to 1 mg/kg	–	–	–	–	1.17 ± 0.98 min	Red urine (8/8)	–	0.36 ± 0.19 min	>12	>6 mg/kg	–	–	–	–	–
C=CC(CC)(CC)OC(=O)c1cncn1[C@H](C)c1ccccc1 [Compound D24]	0.5 to 1 mg/kg	–	–	–	–	0.80 ± 0.20 min	Red urine (8/8)	–	0.56 ± 0.31 min	>13	>7 mg/kg	–	–	–	–	–
C=C(C)CC1(OC(=O)c2cncn2[C@H](C)c2ccccc2)CCC1 [Compound D26]	0.1 to 0.5 mg/kg	–	–	–	–	1.36 ± 0.52 min	urine (8/8)	–	0.56 ± 0.19 min	>10	>4 mg/kg	Myoclonus (3/8), Red	–	–	–	–
C#CC1(OC(=O)c2cncn2[C@H](C)c2ccccc2)CSC1 [Compound D27]	0.5 to 1 mg/kg	–	–	–	–	2.15 ± 1.03 min	Red urine (8/8)	–	0.32 ± 0.09 min	>10	>10 mg/kg	–	–	–	–	–
CC#CC1(OC(=O)c2cncn2[C@H](C)c2ccccc2)CSC1 [Compound D29]	0.5 to 1 mg/kg	–	–	–	–	1.19 ± 0.64 min	(8/8)	Tremor (3/8), Red urine	0.73 ± 0.10 min	>13	>10 mg/kg	–	–	–	–	–
CC#CC1(OC(=O)c2cncn2[C@H](C)c2ccccc2)CCSC1 (some centres unmarked) [Compound D30]	0.5 to 1 mg/kg	–	–	–	–	1.32 ± 0.61 min	urine (8/8)	–	0.43 ± 0.22 min	>11	>5 mg/kg	Myoclonus (2/8), Red	–	–	–	–
CC#CC(C)(C)OC(=O)c1cncn1[C@H](C)c1ccccc1 [Compound D31]	0.5 to 1 mg/kg	–	–	–	–	2.65 ± 1.10 min	Red urine (8/8)	–	0.41 ± 0.15 min	>13	>9 mg/kg	–	–	–	–	–
CC#CC(C)OC(=O)c1cncn1[C@H](C)c1ccccc1 (some centres unmarked) [Compound D32]	0.1 to 0.5 mg/kg	–	–	–	–	2.14 ± 1.23 min	Red urine (8/8)	–	0.49 ± 0.23 min	>16	>5 mg/kg	–	Tongue stretching (2/8),	–	–	–
C=C=CC1(SC(=O)c2cncn2[C@H](C)c2ccccc2)COC1 [Compound D33]	0.5 to 1 mg/kg	–	–	–	–	0.92 ± 0.33 min	Red urine (8/8)	–	0.71 ± 0.22 min	>10	>8 mg/kg	–	–	–	–	–
C=CC#CC(C)OC(=O)c1cncn1[C@H](C)c1ccccc1 (some centres unmarked) [Compound D59]	0.1 to 0.5 mg/kg	–	–	–	–	5.83 ± 1.06 min	Red urine (8/8)	–	0.15 ± 0.02 min	>11	>13 mg/kg	–	–	–	–	–
C#CC1(OC(=O)c2c(F)ncn2[C@H](C)c2ccccc2)COC1 [Compound E4]	–	–	–	–	–	4.38 ± 1.29 min	(8/8)	–	0.45 ± 0.05 min	>20	>10 mg/kg	–	–	B (B means that the measured ED50 is in the range of 0.10-0.50 mg/kg (excluding 0.10 mg/kg, including 0.50 mg/kg).)	10.65 ± 1.31	–
C[C@H](c1ccccc1)n1cnc(F)c1C(=O)OC1CC1 [Compound E34]	0.1 to 0.5 mg/kg	–	–	–	–	1.78 ± 1.09 min	(8/8)	–	0.29 ± 0.20 min	>12	>2 mg/kg	–	(1/8),	–	–	–
C=C=CC1(OC(=O)c2c(F)ncn2[C@H](C)c2ccccc2)CCCCC1 [Compound E36]	0.5 to 1 mg/kg	–	–	–	–	2.21 ± 1.86 min	(8/8)	–	0.49 ± 0.17 min	>26	>5 mg/kg	–	–	–	–	–
C=C=CC(CC)OC(=O)c1c(F)ncn1[C@H](C)c1ccccc1 (some centres unmarked) [Compound E77]	0.5 to 1 mg/kg	–	–	–	–	1.90 ± 0.74 min	urine (8/8)	(2/8), Red	0.11 ± 0.03 min	>12	>10 mg/kg	–	–	–	–	–
CC#CC1(OC(=O)c2c(F)ncn2[C@H](C)c2ccccc2)CSC1 [Compound E91]	0.5 to 1 mg/kg	–	–	–	–	1.24 ± 0.63 min	(8/8)	–	0.48 ± 0.21 min	>6	>20 mg/kg	–	–	–	–	–
C[C@H](c1ccccc1)n1c(Cl)nc(Cl)c1C(=O)OC1COC1 [Compound E132]	0.5 to 1 mg/kg	–	–	–	–	2.70 ± 1.15 min	urine (8/8)	–	0.18 ± 0.06 min	>14	>10 mg/kg	–	–	–	–	(2/8), Red
